Measured values published in PubChem BioAssay (NCI).
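Step 1: Grow cells in 96-well plates. Step 2: Expose to compound for 48 hours at 5 concentrations. Step 3: Interpolate endpoints linearly; if unreached, use highest concentration. TGI is the concentration that stops growth completely.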

Legend:
Assay in all cases: inhibition of tumour cell growth, NCI panel, 48 h
SK-MEL-2 melanoma = test system: SK-MEL-2 melanoma
CAKI-1 renal = test system: CAKI-1 renal
EKVX NSCLC = test system: EKVX NSCLC
HCT-15 colon = test system: HCT-15 colon
SK-MEL-5 melanoma = test system: SK-MEL-5 melanoma
PC-3 prostate = test system: PC-3 prostate
SW-620 colon = test system: SW-620 colon
NCI-H226 lung = test system: NCI-H226 lung
DU-145 prostate = test system: DU-145 prostate
OVCAR-4 ovarian = test system: OVCAR-4 ovarian
HL-60(TB) leukemia = test system: HL-60(TB) leukemia
T-47D breast = test system: T-47D breast
BT-549 breast = test system: BT-549 breast
RXF 393 renal = test system: RXF 393 renal
K-562 leukemia = test system: K-562 leukemia
HT29 colon = test system: HT29 colon
SK-OV-3 ovarian = test system: SK-OV-3 ovarian
HCC-2998 colon = test system: HCC-2998 colon
TK-10 renal = test system: TK-10 renal
MDA-MB-231 breast = test system: MDA-MB-231 breast
SNB-75 CNS = test system: SNB-75 CNS
SR leukemia = test system: SR leukemia
786-0 renal = test system: 786-0 renal
ACHN renal = test system: ACHN renal
UACC-62 melanoma = test system: UACC-62 melanoma
MDA-N = test system: MDA-N
OVCAR-8 ovarian = test system: OVCAR-8 ovarian
HOP-92 NSCLC = test system: HOP-92 NSCLC
HOP-62 NSCLC = test system: HOP-62 NSCLC
A549 NSCLC = test system: A549 NSCLC
MDA-MB-435 = test system: MDA-MB-435
SF-295 CNS = test system: SF-295 CNS
NCI-H522 lung = test system: NCI-H522 lung
MALME-3M melanoma = test system: MALME-3M melanoma
NCI/ADR-RES ovarian = test system: NCI/ADR-RES ovarian
M14 melanoma = test system: M14 melanoma
UACC-257 melanoma = test system: UACC-257 melanoma
UO-31 renal = test system: UO-31 renal
KM12 colon = test system: KM12 colon
U251 CNS = test system: U251 CNS
CCRF-CEM leukemia = test system: CCRF-CEM leukemia
NCI-H23 lung = test system: NCI-H23 lung
NCI-H460 lung = test system: NCI-H460 lung
OVCAR-3 ovarian = test system: OVCAR-3 ovarian
SF-539 CNS = test system: SF-539 CNS
RPMI-8226 leukemia = test system: RPMI-8226 leukemia
SF-268 CNS = test system: SF-268 CNS
HCT-116 colon = test system: HCT-116 colon
SN12C renal = test system: SN12C renal
MOLT-4 leukemia = test system: MOLT-4 leukemia
MCF7 breast = test system: MCF7 breast
SK-MEL-28 melanoma = test system: SK-MEL-28 melanoma
IGROV1 ovarian = test system: IGROV1 ovarian
COLO 205 colon = test system: COLO 205 colon
HS 578T breast = test system: HS 578T breast
SNB-19 CNS = test system: SNB-19 CNS
LOX IMVI melanoma = test system: LOX IMVI melanoma
A498 renal = test system: A498 renal
OVCAR-5 ovarian = test system: OVCAR-5 ovarian

Measured: TGI

Cc1ccccc1C(=O)C#Cc1cn(C2CC(O)C(CO)O2)c(=O)[nH]c1=O (centres undefined)
35.1 µM: MALME-3M melanoma
67.3 µM: CCRF-CEM leukemia
92.5 µM: MOLT-4 leukemia
28.7 µM: NCI-H522 lung
not listed: LOX IMVI melanoma | A498 renal | OVCAR-5 ovarian
> 100 µM: all other assays above

COc1ccc2c(c1)C1Oc3ccccc3CC1(O)CO2 (centres undefined)
not listed: HL-60(TB) leukemia | RXF 393 renal | NCI-H460 lung | SK-MEL-28 melanoma | HS 578T breast | SNB-19 CNS
> 100 µM: all other assays above
